Reference: US7423015B1, “Antihelminthic drugs as a treatment for hyperproliferative diseases” (Board of Regents, The University of Texas System, priority 2001, dated 2008)
pIC50: −log10 of the molar value.

Tests used:
[1] = tested on: H1299 (p53 deleted), H322 (p53 mutated), H460 (wt p53) and A549 (wt p53) human lung cancer cell lines; assay: 3-day growth assay with Ad5p53 and FZ; type: cell-based
Procedure: In those assays, growing, cultured cells were trypsinized and plated (10^4 cells/well) and then infected the next day with Ad5p53 at 1 MOI. Viral supernatant was then added, after which cells were incubated for 24 h, washed with PBS, fed fresh medium or incubated with medium containing FZ for 24 h, washed again, and fed fresh medium. In contrast, uninfected cells (controls) were treated with FZ for 24 h, washed with PBS, fed fresh medium, and then subjected to a 3-day growth assay (FIG. 4A).

[2] = tested on: H460 human non-small cell lung cancer xenograft; type: in vivo, athymic nu/nu mice
Procedure: Mice that had received 3.5 Gy of total body irradiation 1 day before inoculation were given injections into the shoulder of 2×10^6 tumor cells. Mice were then given MZ oral suspension (100 mg Vermox chewable tablet, Janssen Pharmaceutica, NJ, suspended in 10 ml PBS by sonication for 30 sec) with indicated concentration every other day, starting the day after 3-5 mm tumor established. Five mice were used in each group. Control and treated mice were then monitored for tumor growth; the tumors were measured externally in cross-sectional diameter every 7 days. Tumor volumes were calculated as previously described. Experiments were repeated three times.
The in vitro effect of MZ on proliferation of tumor cell lines prompted us to investigate its antitumor activity in an athymic nu/nu mouse model. Tumors were established by subcutaneous injection of H460 cells, a human non-small cell lung cancer (NSCLC) cell line ([…] cells/mouse) (FIG. 5B). […] Moreover, 10/10 animals inoculated with 1×10^6 cells developed tumors within 12 days. […] T0.2, T0.4 and T0.8 correspond to 0.2, 0.4 and 0.8 mg of MZ treatment groups (FIG. 5C). Animals with established tumors, 3-5 mm in diameter, received MZ every other day for 4 weeks, after which tumors were harvested, photographed, and weighed.

[3] = tested on: HUVEC cell tube formation; assay: HUVEC tube formation in conditioned medium; type: cell-based, human
Description: (§1) One of the most encouraging findings is that MZ inhibited the neovascularization in the human xenografts tested. […] The inventors have thus shown that MZ is a potent antiangiogeneic agent. It had no effect on endothelial cell growth, instead directly targeting tumor cells in vivo. MZ may be effective in the treatment of cancer and other angiogenesis-dependent diseases.

[4] = tested on: human lung cancer cell lines (H460 and A549); assay: In vitro proliferation assay with MZ, cell count; type: cell-based; conditions: 24 h treatment, read-out: half maximal inhibitory concentration (IC50)
Procedure: (§2) Cells of the human non-small cell lung cancer (NSCLC) cell line A549, WI-38 normal fibroblast (American Type Culture Collection, Rockville, Md.) and H460 (a gift from Drs. Adi Gazdar and John Minna. University of Texas Southwestern Medical Center, Dallas) were seeded on culture plates (2×10^4 cells/well) in F12 and RPMI medium, respectively, supplemented with 10% heat-inactivated fetal calf serum and antibiotics. HUVEC were grown in medium supplemented with growth factor (Clonetics, San Diego). The cells were then exposed to MZ dissolved in dimethyl sulfoxide (DMSO) when grown to 40-50% confluence. Cell growth was monitored by counting the cells using a hemocytometer.
(§3) Initially, the inventors examined the effect of MZ on proliferation of human lung cancer cell lines (H460 and A549) in vitro.

[5] = tested on: human vascular endothelial cells (HUVEC); assay: In vitro proliferation assay with MZ, cell count; type: cell-based; conditions: 24 h treatment
Procedure: as §2, §3

[6] = tested on: breast, ovarian and colon carcinoma and osteosarcoma; assay: In vitro proliferation assay with MZ; type: cell-based; conditions: Homo sapiens
[7] = tested on: H460 NSCLC cell lines resistant to taxol or vinorelbine; assay: Cell death of microtubule drug resistant cells; type: cell-based, human; conditions: MZ 0.5 μM, 48 h time point
Procedure: The inventors have developed H460 NSCLC cell lines that are resistant to the microtubule drugs: taxol (7 nM) or vinorelbine (9 nM). These cell lines show a marked cross resistance to each other. For example Taxol resistant cells show resistance to Vinorelbine mediated cell death. […] Thus, MZ can be effectively used for killing multi-drug resistant (MDR) cells in a clinical setting.

[8] = tested on: adenovirus expressed MDA-7; assay: Adenovirus expressed MDA-7 levels; type: cell-based
[9] = tested on: neovascularization induced by A549 cells; assay: Angiogenesis by tumor cells in vivo, dorsal air-sac method; design: species or system nude mouse; conditions: MZ oral suspension 1 mg/mouse/day, day 5
Procedure: In vivo angiogenesis was assayed by the dorsal air-sac method (Bouvet et al., 1998). Briefly, 1×10^7 cultured A549 cells were suspended in PBS and packed into round cellulose ester membrane chambers with a diameter of 14 mm (pore size, 0.45 μm; Millipore, Bedford, Mass.). The chambers were then implanted into a dorsal air sac of a nude mouse. After the chamber implantation mice were fed with MZ oral suspension (1 mg/mouse/day). Five mice were used in each group. The mice were killed on day 5, and the subcutaneous region overlying the chamber in each mouse was photographed. The experiment was repeated two times with identical results.
In vivo angiogenesis was further assayed by the dorsal air-sac method (Tanaka et al., 1989). Subcutaneous neovascularization overlying a semipermeable membrane chamber containing […] cells. […] In order to exclude the possibility that the reduced vasculature was due to lack of viable tumor cells in the chamber, cells were prelabeled with fluorescent dye and injected into the chamber. After the blood vessels were photographed, the tumor cells on the membrane was examined under a fluorescence microscope.

VEGF = VEGF expression/secretion in H460 cell line; type: cell-based, human; conditions: H460, treatment period 18 hours
Procedure: FIG. 7. Percent Inhibition of VEGF Expression in H460 Cell Line After MZ Treatment. Treatment period was 18 hours; control (C); treatment (T).
as §1

COC(=O)Nc1nc2ccc(Sc3ccccc3)cc2[nH]1 [Fenbendazole, methy 5-(phenylthio)-2-benzimidazole-2-carbamate]
cell growth after FZ alone, p53-mutated and deleted cells ([1]; 0.05 μg/ml FZ for 24 h): not growth inhibited
growth inhibition after FZ alone, wt p53 H460 cells ([1]; 0.05 μg/ml FZ for 24 h): significantly so
cell growth after Ad5p53 plus FZ ([1]; Ad5p53-transduced cells (1 MOI, 24 h) treated with FZ for 24 h, all four cell lines, 3-days growth assay): striking growth inhibition

COC(=O)Nc1nc2ccc(C(=O)c3ccccc3)cc2[nH]1 [Mebendazole, Methyl 5-benzoylbenzimidazole-2-carbamate]
tumor growth, dose escalation ([2]; 0.2, 0.4 and 0.8 mg of MZ every other day): suppressed the growth of the tumors in a dose-dependent manner
tumor weight versus control animals ([2]; MZ every other day for 4 weeks): marked difference
tumor growth ([2]; established tumors (3 mm), 1 mg of MZ orally every other day): profoundly inhibit tumor growth
toxicity in treated mice ([2]; mouse, in vivo): no signs of toxicity
HUVEC cell tube formation [3]: inhibited
pIC50 [4]: ~6.92
effect on growth of HUVEC [5]: no effect
pIC50 [6]: 6.10 to 7.00
cell death [7]: 40-70%
levels of adenovirus expressed MDA-7 [8]: increased levels
number and caliber of blood vessels [9]: significantly reduced
VEGF secretion (VEGF): marked down-regulation
